The subject of this assay is TH positive cells in the substantia nigra. The assay can be described thus: Protection of the substantia nigra after transient global ischaemia in gerbils (TH positive cell count). The conditions noted are these: 2 mg/kg i.p. 2 minutes after end of occlusion. In kind it is in vivo, Mongolian gerbils. How it is done: Protection of the Substantia Nigra after Transient Global Ischaemia in Gerbils
In this experiment, the neuroprotective effect of a test compound is assessed in an animal model of transient global ischaemia.
Method: In halothane anaesthetised gerbils, right and left carotid arteries are located and occluded for 10 minutes. Animals are kept at normal body temperature before and after the operation using heating lamps. During surgery, the gerbils are placed on heating pads, the body temperature is controlled and maintained at 37±0.5° C. The test compound is dosed at specified time points after the ischaemic insult, either i.v., i.p., s.c. or p.o.
Fourteen days later, the animals are sacrificed, brains removed and cooled to −70° C. Thereafter, the brains are sectioned in 20 μm thick sections through the substantia nigra region. Sections are stained for tyroxine hydroxylase (TH+) expression using immunohistochemistry. The number of TH+ cells in the sections is counted and the total number of TH+ cells in the substantia nigra is calculated by means of stereology. […]
After 14 days, the animals were sacrificed and the brains sectioned. […] The total number of TH positive cells after ischemia or in control animals were determined by means of stereological cell counting.

As to `CON=C[C@@H]1[C@@H](c2ccc(Cl)c(Cl)c2)CC2CC[C@H]1N2C` [test compound, (1R,2R,3S)-3-(3,4-dichlorophenyl)-tropane-2-O-methyl-aldoxime], under “10 min bilateral carotid artery occlusion, counted after 14 days by stereology, control 9531, ischemia 7510”, the “Mean number of cells (total number of TH positive cells in the substantia nigra)” value was found to be 10615 cells. Moreover, the “number of surviving TH positive cells in the substantia nigra after ischemia, compared with untreated ischemia” value (10 min carotid artery occlusion, 14 days) is given as “apparently increased”.

(Values after patent US7381733B2, “Tropane derivatives having dopamine reuptake inhibitor activity for the treatment of ischemic diseases” (Neurosearch A/S, priority 2001, dated 2008).)
